Test results from US5288872A, “Compounds for treatment of neurodegenerative diseases” (priority 1992, dated 1994).

Columns and labels:
[1] = target: nicotinic receptors; assay: Inhibition of L-[^3 H] nicotine binding to mouse brain membrane preparations; set-up: species or system mouse (DBA strain); conditions: mouse brain membranes, 2 hr. incubation at 4° C., pH 7.5, racemic mixture of ligand
Procedure: Mice (DBA strain) were maintained on a 12 hour light/dark cycle and were allowed free access to water and food supplied by Wayne Lab Blox, Madison, Wis. Animals used in the present studies were 60 to 90 days of age and weighed 20 to 25 g. Brain membrane preparations were obtained from pooled brain tissue of both males and females.
Mice were killed by cervical dislocation. Brains were removed and placed on an ice-cold platform. […] Protein was determined by the method of Lowry, et al., J. Biol. Chem., Vol. 193, pp. 265-275 (1951), using bovine serum albumin as the standard.
The binding of L-[^3 H] nicotine was measured using a modification of the method of Romano, et al., Science, Vol. 210, pp. 647-650 (1980) as described previously by Marks, et al., Mol. Pharmacol., Vol. 30, pp. 427-436 (1986). The binding of L-[^3 H] nicotine was measured using a 2 hr. incubation at 4° C. […] Nonspecific binding was determined by inclusion of 10 μM nonradioactive nicotine in the incubations. The inhibition of L-[^3 H] nicotine binding by test compounds was determined by including one of eight different concentrations of the test compound in the incubation. […] Inhibition constants (Ki values) were calculated from the IC50 values using the method of Cheng, et al., Biochem. Pharmacol., Vol. 22, pp. 3099-3108 (1973).

[2] = tested on: synaptosomes from the striatal area of rat brain; assay: Dopamine release from striatal synaptosomes of rat brain; assay type: cell-based, rat (Sprague-Dawley); conditions: read-out: Dopamine Release (percent release relative to S(-)nicotine)
Procedure: Dopamine release was measured by preparing synaptosomes from the striatal area of rat brain generally obtained from Sprague-Dawley rats according to the procedures set forth by Nagy, et al., J. Neurochem., Vol. 43, pp. 1114-1123 (1984). Striata from 4 rats were homogenized in 2 ml of 0.32M sucrose buffered with 5 mM HEPES (pH 7.5), using a glass-teflon tissue grinder. The homogenate was diluted to 5 ml with additional homogenization solution and centrifuged at 1000×g for 10 min. This procedure was repeated on the new pellet and the resulting supernatant was centrifuged at 12,000×g for 20 min. […] Using this method, 30 to 90 percent of the dopamine was taken up into the synaptosomes, as determined by scintillation counting following filtration through glass fiber filters soaked with 0.5 percent polyethyleneimine. […] After the addition of a 0.2 ml of a 20 μM solution of ligand, the perfusate was collected into scintillation vials at 1 min. intervals and the dopamine released was quantified by scintillation counting. Peaks of radioactivity released above background were summed and the average basal release during that time was subtracted from the total. Release was expressed as a percentage of release obtained with an equal concentration of S(-)nicotine.

SMILES | Ki [1] | Emax [2]
CC(=O)C1=CCC2CCC1N2C (stereo not shown) [Ferruginine, ferruginine] | 3100 ± 500 nM | 15%
CC(=O)C1=CCC2CCC1N2 (stereo not shown) [Norferruginine, norferruginine] | 1100 ± 300 nM | 25%
